Among the data in ChEMBL document CHEMBL1129707, “Identification and biological activity of novel peptidomimetic gastrin/CCK-B receptor agonists” (Bioorg Med Chem Lett, 1996) are IC50 values, retold here.

Test [1] concerns the target T1, Gastrin/cholecystokinin type B receptor (Rattus norvegicus, UniProt P30553).
T1 sequence (P30553 whole entry): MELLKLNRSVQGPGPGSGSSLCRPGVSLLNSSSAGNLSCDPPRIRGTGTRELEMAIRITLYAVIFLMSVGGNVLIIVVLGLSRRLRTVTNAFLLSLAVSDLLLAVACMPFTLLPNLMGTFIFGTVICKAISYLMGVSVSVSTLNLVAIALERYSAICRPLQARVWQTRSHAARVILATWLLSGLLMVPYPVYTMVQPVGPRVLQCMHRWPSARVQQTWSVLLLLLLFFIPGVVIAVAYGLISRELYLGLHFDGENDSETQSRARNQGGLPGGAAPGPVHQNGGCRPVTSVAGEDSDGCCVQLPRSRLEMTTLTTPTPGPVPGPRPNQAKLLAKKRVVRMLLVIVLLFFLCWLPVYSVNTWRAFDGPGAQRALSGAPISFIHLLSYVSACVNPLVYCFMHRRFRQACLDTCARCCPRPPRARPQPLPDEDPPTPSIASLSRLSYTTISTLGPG
The experiment in a line: Tested for displacement of [125I]-CCK-8 from Gastrin/Cholecystokinin type B receptor in rat brain. It counts as tissue-based. For orientation: Loss of bound radioactivity is the signal in a displacement assay; it reports binding, not function.

Test [2] concerns the target T2, Cholecystokinin receptor type A (Rattus norvegicus, UniProt P30551).
T2 sequence (P30551 whole entry): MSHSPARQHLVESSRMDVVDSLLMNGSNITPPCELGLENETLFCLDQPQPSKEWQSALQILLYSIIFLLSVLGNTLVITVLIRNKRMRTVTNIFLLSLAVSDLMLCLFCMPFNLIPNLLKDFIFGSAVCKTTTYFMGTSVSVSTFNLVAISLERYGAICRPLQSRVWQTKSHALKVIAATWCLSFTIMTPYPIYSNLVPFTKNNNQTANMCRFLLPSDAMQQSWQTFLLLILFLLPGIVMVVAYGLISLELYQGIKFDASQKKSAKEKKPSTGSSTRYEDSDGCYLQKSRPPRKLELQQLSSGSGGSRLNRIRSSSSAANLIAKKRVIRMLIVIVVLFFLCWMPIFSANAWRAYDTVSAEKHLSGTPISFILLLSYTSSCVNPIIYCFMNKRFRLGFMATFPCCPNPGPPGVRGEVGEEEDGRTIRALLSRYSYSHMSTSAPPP
Description: Tested for displacement of [3H]-L-364,718 from Cholecystokinin type A receptor in rat pancreas.

In the case of `CC(C)(C)OC(=O)N1c2ccccc2C[C@@H]1C(=O)N1[C@@H](C(=O)N2Cc3ccccc3C[C@@H]2C(=O)N2CCCC2C(=O)O)CC[C@H]1c1ccccc1` (stereo partly specified), the IC50 (in general, the concentration that inhibits the measured activity by half) is 0.25 nM in test [1] and over 10 µM in test [2].

As for `CCCC[C@H](NC(=O)Cc1c[nH]c2ccccc12)C(=O)N(CCC1CCCCC1)CC(=O)N1CCC[C@H]1C(=O)O`, the IC50 in test [1] was 2.3 nM; in test [2], over 10 µM.

On to `O=C(Cc1c[nH]c2ccccc12)N[C@@H](CCc1ccccc1)C(=O)N(CCC1CCCCC1)CC(=O)N1CCC[C@H]1C(=O)O`, for which the results for the IC50 in test [1] and in test [2] were 17 nM and over 10 µM, respectively.

On to `O=C(Cc1c[nH]c2ccccc12)N[C@@H](Cc1ccccc1)C(=O)N(CCC1CCCCC1)CC(=O)N1CCC[C@H]1C(=O)O`, for which the half-maximal inhibitory concentration (IC50) in test [1] is 0.94 nM; in test [2], over 10 µM.

Consider `CC(C)(C)OC(=O)N1c2ccccc2C[C@@H]1C(=O)N1[C@@H](C(=O)N2Cc3ccccc3C[C@@H]2C(=O)N2CCC[C@@H]2C(=O)O)CC[C@H]1c1ccccc1`, for which the values for the IC50 in test [1] and in test [2] were 36 nM and over 10 µM, respectively.

For `CC(C)(C)OC(=O)N1c2ccccc2C[C@@H]1C(=O)N1[C@@H](C(=O)N2Cc3ccccc3C[C@@H]2C(=O)O)CC[C@H]1c1ccccc1`, the half-maximal inhibitory concentration (IC50) was 39 nM in test [1] and over 10 µM in test [2].

Regarding `CC(C)(C)OC(=O)N1c2ccccc2C[C@@H]1C(=O)N1[C@@H](C(=O)N2Cc3ccccc3C[C@@H]2C(=O)NCC(=O)O)CC[C@H]1c1ccccc1`, the half-inhibitory concentration (IC50) in test [1] was 27 nM; in test [2] it was over 10 µM.

For the compound `CCCC[C@H](NC(=O)Cc1c[nH]c2ccccc12)C(=O)N(CCc1ccccc1)CC(=O)N1CCCC1C(=O)O` (stereo partly specified), the IC50 in test [1] amounted to 300 nM.

Compound `CCC[C@@H]1CCN(C(=O)[C@@H]2Cc3c[nH]c4cccc(c34)CC(=O)N2)[C@@H]1C(=O)N[C@@H](CC(=O)O)C(=O)N[C@@H](Cc1ccccc1)C(N)=O` returned a concentration for half-maximal inhibition (IC50) in test [1] of 0.7 nM.

Regarding `CCCC[C@H](NC(=O)Cc1c[nH]c2ccccc12)C(=O)N(CCC1CCCCC1)CC(=O)N1CCCC1`, the results for the IC50 in test [1] and in test [2] were 146 nM and over 10 µM, respectively.

For `CC(C)(C)OC(=O)N1c2ccccc2C[C@@H]1C(=O)N1[C@@H](C(=O)N2Cc3ccccc3C[C@@H]2CC(=O)O)CC[C@H]1c1ccccc1`, the 50% inhibitory concentration (IC50) in test [1] is 35 nM; in test [2] it was over 10 µM.

As to `CC(C)(C)OC(=O)N1c2ccccc2C[C@@H]1C(=O)N1[C@@H](C(=O)N2Cc3ccccc3C[C@@H]2C(N)=O)CC[C@H]1c1ccccc1`, the IC50 was 170 nM in test [1] and over 10 µM in test [2].

For the compound `CC(C)(C)OC(=O)N1c2ccccc2C[C@@H]1C(=O)N1[C@@H](C(=O)N2CCc3ccccc3C2)CC[C@H]1c1ccccc1`, the IC50 in test [1] is 52 nM; in test [2], over 10 µM.

In turn, `CCCC[C@H](NC(=O)Cc1c[nH]c2ccccc12)C(=O)N(CCc1ccccc1)CC(=O)N1CCC[C@H]1C(=O)O` registered an IC50 in test [1] of 34 nM.

In test [1], `CC(C)C[C@@H](C(=O)N[C@@H](CC(=O)O)C(=O)N[C@@H](Cc1ccccc1)C(N)=O)N1CC(=O)N[C@H](Cc2c[nH]c3ccccc23)C1=O` showed an IC50 of 37.7 nM.

Regarding `CCCC[C@H](NC(=O)Cc1c[nH]c2ccccc12)C(=O)N(CCC1CCCCC1)CC(=O)O`, the half-maximal inhibitory concentration (IC50) in test [1] is 370 nM; in test [2] it was over 10 µM.

For `CCCC[C@H](NC(=O)Cc1c[nH]c2ccccc12)C(=O)N(CC(=O)N1CCC[C@H]1C(=O)O)CC1CCCCC1`, the half-maximal inhibitory concentration (IC50) in test [1] is 30.2 nM; in test [2] it was over 10 µM.

As for `CCCC[C@H](NC(=O)Cc1c[nH]c2ccccc12)C(=O)N(CCc1ccccc1)CC(=O)O`, the IC50 in test [1] is 165 nM.
